Source: US20250034184A1, “QUATERNARY PHOSPHONIUM COMPOUNDS AND USES THEREOF” (Emory University, priority 2021, published 2025)

What was measured:
[1] = test system: Enterococcus faecalis (OG1RF); assay: microbe, parasite or virus in culture; format: cell-based; settings: OG1RF
[2] = test system: methicillin-susceptible S. aureus (SH1000); assay: microbe, parasite or virus in culture; format: cell-based; settings: SH1000; […] DMSO carrier at highest test concentration (250 μM)
[3] = test system: Pseudomonas aeruginosa (PAO1); assay: microbe, parasite or virus in culture; format: cell-based; settings: P. aeruginosa PAO1
[4] = test system: hospital-acquired methicillin-resistant S. aureus (HA-MRSA; ATCC 33591); assay: microbe, parasite or virus in culture; format: cell-based; settings: ATCC 33591
red blood cell (RBC) = assay: Red blood cell (RBC) lysis (Lysis20); settings: RBC lysis as proxy for toxicity
[5] = test system: community-acquired methicillin-resistant S. aureus (CA-MRSA; USA 300-0114); assay: microbe, parasite or virus in culture; format: cell-based; settings: USA 300-0114
[6] = test system: Escherichia coli (MC4100); assay: microbe, parasite or virus in culture; format: cell-based; settings: MC4100

Compound	Minimum Inhibitory Concentration E. faecalis [1] [µM]	Minimum Inhibitory Concentration MSSA [2] [µM]	Minimum Inhibitory Concentration Pa [3] [µM]	Minimum Inhibitory Concentration HA-MRSA [4] [µM]	Lys20 (red blood cell (RBC)) [µM]	Minimum Inhibitory Concentration CA-MRSA [5] [µM]	Minimum Inhibitory Concentration E. coli [6] [µM]
CCCCCCCCCCCCCC[P+](CC[P+](CCCCCCCCCCCCCC)(c1ccccc1)c1ccccc1)(CC[P+](CCCCCCCCCCCCCC)(c1ccccc1)c1ccccc1)c1ccccc1 [P2P2P-14,14,14, ((phenyl(tetradecyl)phosphoniodiyl)bis(ethane-2,1-diyl))bis(diphenyl(tetradecyl)phosphonium)]	250	16	>250	32	1	16	250
octadecyltriphenylphosphonium [TPP-18]	16	4	125	8	4	8	125
